Values of other authors as cited in patent US7723036B2, “Assessing response to anti-CD20 therapy by genotyping C1q components” (The University of Iowa Research Foundation, priority 2005, dated 2010).
Counter-ions that a name gives are not always drawn.

Tests used:
[1] = in vivo
[2] = oral radioactive lomustine 30 mg/m^2 to 100 mg/m^2; within 24 hours
[3] = in vivo; remark: listed apart in the source

Row | oral absorption (in words) [1] | administered dose recovered in the feces after biliary excretion [3] | Compound | radioactivity given excreted in the form of degradation products [2]
1 | poor | – | COc1cccc2c1C(=O)c1c(O)c3c(c(O)c1C2=O)C[C@@](O)(C(C)=O)C[C@@H]3O[C@H]1C[C@H](N)[C@H](O)[C@H](C)O1 [Daunorubicin, 5,12-Naphthacenedione, (8S-cis)-8-acetyl-10-((3-amino-2,3,6-trideoxy-a-L-lyxo-hexanopyranosyl)oxy)-7,8,9,10-tetrahydro-6,8,11-trihydroxy-10-methoxy-, hydrochloride] | –
2 | absorbed poorly | – | COc1cccc2c1C(=O)c1c(O)c3c(c(O)c1C2=O)C[C@@](O)(C(=O)CO)C[C@@H]3O[C@H]1C[C@H](N)[C@H](O)[C@H](C)O1 [Doxorubicin, 5,12-Naphthacenedione, (8s-cis)-10-((3-amino-2,3,6-trideoxy-a-L-lyxo-hexopyranosyl)oxy)-7,8,9,10-tetrahydro-6,8,11-trihydroxy-8-(hydroxyacetyl)-1-methoxy-hydrochloride] | –
3 | – | – | O=NN(CCCl)C(=O)NC1CCCCC1 [Lomustine, 1-(2-chloro-ethyl)-3-cyclohexyl-1 nitrosourea] | about half
4 | Unpredictable absorption | about 10% | CC[C@]1(O)C[C@@H]2CN(CCc3c([nH]c4ccccc34)[C@@](C(=O)OC)(c3cc4c(cc3OC)N(C)[C@H]3[C@@](O)(C(=O)OC)[C@H](OC(C)=O)[C@]5(CC)C=CCN6CC[C@]43[C@@H]65)C2)C1 [Vinblastine] | –
5 | Unpredictable absorption | – | CC[C@]1(O)C[C@H]2CN(CCc3c([nH]c4ccccc34)[C@@](C(=O)OC)(c3cc4c(cc3OC)N(C=O)[C@H]3[C@@](O)(C(=O)OC)[C@H](OC(C)=O)[C@]5(CC)C=CCN6CC[C@]43[C@@H]65)C2)C1 [Vincristine] | –

Row | Compound | oral absorption (in words) [1] | administered dose recovered in the feces after biliary excretion [3] | radioactivity given excreted in the form of degradation products [2]
6 | O=C(O)CCCc1ccc(N(CCCl)CCCl)cc1 [Chlorambucil, 4-(bis(2-chlorethyl)amino) benzenebutanoic acid] | rapidly and completely absorbed | – | –
7 | N.N.[Cl][Pt][Cl] [Cisplatin] | not absorbed orally | – | –
